Laboratory results from US9737478B2, “Treatment of malaria” (National Institutes of Health (NIH), U.S. Dept. of Health …, priority 2009, dated 2017).

Columns and labels:
[1] = system: Plasmodium berghei ANKA (PbA); experiment: Treatment of PbA-infected mice presenting clinical cerebral malaria (survival, motor score, parasitemia); type: in vivo, C57B1/6 mice; settings: for survival: mice with CM
Description: Eight to 10-week old C57B1/6 mice (Jackson Laboratories, ME) were inoculated intraperitoneally with 1×10^6 Plasmodium berghei ANKA (PbA) parasites expressing the GFP protein (obtained from MR4-NIH, deposited by C J Anders and A Waters). Parasitemia, body weight and rectal temperature were checked daily from day 4. […] Five tests were performed: transfer arousal, locomotor activity, tail elevation, wire maneuver and righting reflex. For each test, mice received an individual score, and the sum of scores was used to create a composite score.
PbA-infected mice presenting poor righting reflex, hypothermia and/or other clinical signs of neurological involvement such as ataxia, limb paralysis, seizures and/or roll-over were treated with artemether (Artesiane, Dafra Pharma, Belgium, a kind gift of Dr Alberto Moreno, Emory University, Atlanta, Ga.) given IP at 50 mg/kg, in combination with nimodipine (Sigma, St Louis, Mo.) or vehicle (ethanol:polyethyleneglycol (PEG) 400:saline in 1:1:8 v/v). Nimodipine was dissolved in ethanol (EMD, N.J.), dispersed with polyethyleneglycol 400 (PEG, Sigma) and then saline was added (1:1:8 v/v) and mixed thoroughly. This solution was administered intraperitoneally in three different doses: 1.3 mg/kg, 4 mg/kg and 12 mg/kg. […] Parasitemia, motor behavior and rectal temperature were checked at each timepoint and daily afterwards. After treatment, parasitemia was checked by microscopical examination of Giemsa-stained blood smears to differentiate viable from dead parasites.

[2] = system: PbA-infected mice with clinical CM; experiment: Intravital microscopy of pial vessels (closed cranial window) in PbA-infected mice with clinical CM; type: in vivo; settings: nimodipine 4 mg/kg IP, 30 minutes after injection
Excerpt: Briefly, mice were anesthetized with ketamine-xylazine, the head held on a stereotaxic frame, the scalp cut off and a 3-4 mm diameter skull opening was made in the left parietal bone using a surgical drill. The exposed area was covered with a 5 mm glass cover slip glued with dental acrylic. Carprofen and ampicillin were given for 3-5 days to prevent pain, inflammation and infection. Two weeks after surgery, mice were lightly anesthetized with isoflurane (4% for induction, 1-2% for maintenance) and held on a stereotaxic frame. A panoramic picture of the window was taken and then mice were transferred to an intravital microscope stage (customized McBain, San Diego, Calif.). Body temperature was maintained using a heating pad. […] Measurements of 6-10 pial venules (diameter range: 22-80 μm, velocity range: 2-4 mm/s) and 2-6 pial arterioles (diameter range: 18-70 μm, velocity range: 3-6 mm/s) were performed in each animal, and blood flow (Q) in each individual vessel was calculated using the equation: Q=V×(D/2)2.
The next day mice were inoculated intraperitoneally with 1×10^6 PbA-GFP pRBC. The intravital microscopy procedure was repeated daily from day 4 of infection until the mice died or were euthanized. Non-infected control mice were submitted to the same procedures. […]

Row | SMILES | survival ([1]; artemether 50 mg/kg IP daily for 5 days plus vehicle) | deaths occurring in the first 36 hours ([1]; vehicle-treated group (artemether plus vehicle)) | survival ([1]; adjunctive nimodipine at 4 and 12 mg/kg IP at 0, 12, 24, 36 h with artemether 50 mg/kg IP daily for 5 days) | increase in arteriolar blood flow [2]
1 | CO[C@H]1O[C@@H]2O[C@@]3(C)CC[C@H]4[C@H](C)CC[C@@H]([C@H]1C)[C@@]24OO3 [artemether] | 32.2% | 95.2% |  | 
2 | COCCOC(=O)C1=C(C)NC(C)=C(C(=O)OC(C)C)C1c1cccc([N+](=O)[O-])c1 (stereo not shown) [nimodipine] |  |  | 60-66.6% | about 50%
